Tests used:
Format in all cases: functional
[1] = test system: Rattus norvegicus; test: Percent response at dose 5 mg/kg evaluated by dose-response tests in trained rats(post injection interval 15 min)
[2] = test system: Rattus norvegicus; test: Mean responses per minute at dose 10 mg/kg evaluated by temporal tests in trained rats(post injection interval 15 min)
[3] = test system: Rattus norvegicus; test: Percent response at dose 2.5 mg/kg evaluated by dose-response tests in trained rats(post injection interval 15 min)
[4] = test system: Rattus norvegicus; test: Mean responses per minute at dose 10 mg/kg evaluated by temporal tests in trained rats(post injection interval 120 min)
[5] = test system: Rattus norvegicus; test: Percent response at dose 10 mg/kg evaluated by dose-response tests in trained rats(post injection interval 15 min)
[6] = test system: Rattus norvegicus; test: Mean responses per minute at dose 10 mg/kg evaluated by dose-response tests in trained rats(post injection interval 15 min)
[7] = test system: Rattus norvegicus; test: Number of animals(n) completing 20 responses on either lever out of the number of animals tested (N) at dose 10 mg/kg evaluated by temporal tests in trained rats(post injection interval 30 min); n/N=7/7
[8] = test system: Rattus norvegicus; test: Number of animals(n) completing 20 responses on either lever out of the number of animals tested (N) at dose 10 mg/kg evaluated by dose-response tests in trained rats(post injection interval 15 min); n/N=7/7
[9] = test system: Rattus norvegicus; test: Percent response at dose 10 mg/kg evaluated by temporal tests in trained rats(post injection interval 60 min)
[10] = test system: Rattus norvegicus; test: Number of animals(n) completing 20 responses on either lever out of the number of animals tested (N) at dose 10 mg/kg evaluated by temporal tests in trained rats(post injection interval 60 min); n/N=7/7
[11] = test system: Rattus norvegicus; test: Mean responses per minute at dose 5 mg/kg evaluated by dose-response tests in trained rats(post injection interval 15 min)
[12] = test system: Rattus norvegicus; test: Number of animals(n) completing 20 responses on either lever out of the number of animals tested (N) at dose 10 mg/kg evaluated by temporal tests in trained rats(post injection interval 15 min); n/N=7/7
[13] = test system: Rattus norvegicus; test: Mean responses per minute at dose 10 mg/kg evaluated by temporal tests in trained rats(post injection interval 5 min)
[14] = test system: Rattus norvegicus; test: Percent response at dose 1.25 mg/kg evaluated by dose-response tests in trained rats(post injection interval 15 min)
[15] = test system: Rattus norvegicus; test: Mean responses per minute at dose 10 mg/kg evaluated by temporal tests in trained rats(post injection interval 30 min)
[16] = test system: Rattus norvegicus; test: Percent response at dose 10 mg/kg evaluated by temporal tests in trained rats(post injection interval 120 min)
[17] = test system: Rattus norvegicus; test: Percent response at dose 10 mg/kg evaluated by temporal tests in trained rats(post injection interval 5 min)
[18] = test system: Rattus norvegicus; test: Number of animals(n) completing 20 responses on either lever out of the number of animals tested (N) at dose 10 mg/kg evaluated by temporal tests in trained rats(post injection interval 120 min); n/N=7/7
[19] = test system: Rattus norvegicus; test: Mean responses per minute at dose 2.5 mg/kg evaluated by dose-response tests in trained rats(post injection interval 15 min)
[20] = test system: Rattus norvegicus; test: Number of animals(n) completing 20 responses on either lever out of the number of animals tested (N) at dose 1.25 mg/kg evaluated by dose-response tests in trained rats(post injection interval 15 min); n/N=7/7
[21] = test system: Rattus norvegicus; test: Percent response at dose 10 mg/kg evaluated by temporal tests in trained rats(post injection interval 30 min)
[22] = test system: Rattus norvegicus; test: Number of animals(n) completing 20 responses on either lever out of the number of animals tested (N) at dose 5 mg/kg evaluated by dose-response tests in trained rats; n/N=7/7
[23] = test system: Rattus norvegicus; test: Mean responses per minute at dose 0.62 mg/kg evaluated by dose-response tests in trained rats(post injection interval 15 min)
[24] = test system: Rattus norvegicus; test: Number of animals(n) completing 20 responses on either lever out of the number of animals tested (N) at dose 10 mg/kg evaluated by temporal tests in trained rats(post injection interval 5 min); n/N=7/7
[25] = test system: Rattus norvegicus; test: Percent response at dose 0.62 mg/kg evaluated by dose-response tests in trained rats(post injection interval 15 min)
[26] = test system: Rattus norvegicus; test: Mean responses per minute at dose 10 mg/kg evaluated by temporal tests in trained rats(post injection interval 60 min)
[27] = test system: Rattus norvegicus; test: Number of animals(n) completing 20 responses on either lever out of the number of animals tested (N) at dose 2.5 mg/kg evaluated by dose-response tests in trained rats(post injection interval 15 min); n/N=7/7
[28] = test system: Rattus norvegicus; test: Percent response at dose 10 mg/kg evaluated by temporal tests in trained rats(post injection interval 15 min)
[29] = test system: Rattus norvegicus; test: Number of animals(n) completing 20 responses on either lever out of the number of animals tested (N) at dose 0.62 mg/kg evaluated by dose-response tests in trained rats(post injection interval 15 min); n/N=7/7
[30] = test system: Rattus norvegicus; test: Mean responses per minute at dose 1.25 mg/kg evaluated by dose-response tests in trained rats(post injection interval 15 min)

Compound: COC(=O)[C@H]1[C@@H](OC(=O)c2ccccc2)C[C@@H]2CC[C@H]1N2C [COCAINE]
- Drug response [1]: 98%
- Rate response [2]: 76 min⁻¹
- Drug response [3]: 61%
- Rate response [4]: 28 min⁻¹
- Drug response [5]: 99%
- Rate response [6]: 76 min⁻¹
- No. resp animals / Total [7]: 7 / 7
- No. resp animals / Total [8]: 7 / 7
- Drug response [9]: 81%
- No. resp animals / Total [10]: 7 / 7
- Rate response [11]: 89 min⁻¹
- No. resp animals / Total [12]: 7 / 7
- Rate response [13]: 28 min⁻¹
- Drug response [14]: 44%
- Rate response [15]: 61 min⁻¹
- Drug response [16]: 31%
- Drug response [17]: 85%
- No. resp animals / Total [18]: 7 / 7
- Rate response [19]: 32 min⁻¹
- n/N [20]: 7 / 7
- Drug response [21]: 100%
- No. resp animals / Total [22]: 7 / 7
- Rate response [23]: 27 min⁻¹
- No. resp animals / Total [24]: 7 / 7
- Drug response [25]: 6%
- Rate response [26]: 23 min⁻¹
- No. resp animals / Total [27]: 7 / 7
- Drug response [28]: 99%
- No. resp animals / Total [29]: 7 / 7
- Rate response [30]: 21 min⁻¹
